This is an account of results in patent US20130281491A1 (priority 2010, published 2013).

The nature of this series: Forced degradation of methadone hydrochloride solutions (HPLC). The note with it: 1M hydrochloric acid or 0.1M sodium hydroxide, 25° C. for a week.

As for `CCC(=O)C(CC(C)N(C)C)(c1ccccc1)c1ccccc1` (stereo not shown) [methadone], the “Stability with acids and bases” value is “no detected degradation”.
